Results as given in patent US20190008918A1, “IMMUNOMODULATION THERAPIES FOR CANCER” (BIOXCEL CORPORATION, priority 2016, published 2019).

What was measured:
[1] = test system: MC38 mouse colon cancer cell line; assay: Antitumor efficacy in MC38 mouse model of colon adenocarcinoma (tumor volume, % TGI); format: in vivo, mouse (C57BL/6); details: day 10, Mifamurtide 30 μg biw and/or PD-1 antagonist 5 mg/kg biw
Source text: Six to seven-week-old female C57BL/6 mice (20±4 g weight) were used in the studies. Mice received food and water ad libitum. The study protocol, the procedures involving the care and use of animals were reviewed and approved by the Institutional Animal Care and Use Committee (IACUC) to ensure compliance with the regulations of the Association for Assessment and Accreditation of Laboratory Animal Care (AAALAC).
(§1) DMEM medium (Cat. No.: 11960-044). Glutamax™ (Cat. No.: 35050061), Trypsin-EDTA (0.25%) (Cat. No.: 25200-056), Penicillin-Streptomycin (Cat. No.: 15070-063), Hanks' Balanced Salt solution (Cat. No.: 14175-095) were procured form Gibco, while Fetal Bovine Serum (FBS) Cat. No.: 004-001-1A was purchased from Biological Industries. PD-1 antagonist (Cat. No.: BE0146) was supplied by BioXcell. Stock solutions of PD-1 antagonist at 1 mg/ml were kept at 4° C. prior to use. Dosing solutions of PD-1 antagonist were prepared freshly before every administration in sterile phosphate buffered saline (pH 7.0) and maintained at 4° C. The test article Mifamurtide was procured from Sigma (SML0195) and prepared freshly as a working solution at concentration of 300 μg/ml and 100 μg/ml in sterile phosphate buffered saline (pH 7.0), to be administered at a total dose of 30 μg (corresponds to 1.5 mg/kg in mice) and 10 μg (corresponds to 0.5 mg/kg in mice) respectively, into the animal as indicated in Table 1. Luminex assay kit: MCYTOMAG-70K-32 was commercially available from Millipore, was used to analyze the cytokines and chemokines in the serum samples.
MC38 mouse colon cancer cell line as provided by GenScript were maintained as monolayer culture in DMEM supplemented with 10% fetal bovine serum (FBS), 1% Glutamax™ and 1% Penicillin-Streptomycin at 37° C. in an atmosphere with 5% CO2. The cells were routinely sub-cultured every 2 days to maintain growth at exponential phase. The tumor cells growing in exponential growth phase were harvested by trypsinization, followed by centrifugation at 335×g relative centrifugal force (RCF) in a centrifuge. The supernatant was subsequently removed by aspiration. Cell pellet was re-suspended in approximately 10× volume of cell culture medium and counted. The cell suspension was centrifuged again and processed as above and finally re-suspended in HBSS at a density of 1×10^7 cells per ml. Cell viability was determined to be ≥95% by trypan blue staining. […]
Tumor size and body weights were measured twice weekly.
Tumor size was measured twice per week in 2 dimensions using a caliper (recorded up to one decimal point). Tumor volume, expressed in mm^3, was calculated using the following formula, in which “a” and “b” were the long and the short diameters of a tumor, respectively. […]

[2] = test system: cytokines (IFN-γ, IL-6, IL-12p40, and TNF-α) and chemokines (MCP-1 and MIP-2); assay: Luminex analysis of serum cytokines and chemokines in MC38 tumor bearing mice; format: in vivo, mouse (C57BL/6)
Experimental: as §1
The immuno-modulatory effect of Mifamurtide at dose of 30 μg (b.i.w.) in the presence and absence of PD-1 antagonist at dose 5 mg/kg (b.i.w.) was also analysed. Luminex analysis was done to check the levels of cytokines (IFN-γ, IL-6, IL-12p40, and TNF-α) and chemokines (MCP-1 and MIP-2). […] Although all Mifamurtide doses and combinations were tolerated with no early death and sustained effect on body weight (data not shown).

[3] = post (8 hours) vs pre, Mifamurtide 30 μg and/or PD-1 antagonist 5 mg/kg
[4] = post (Day 11) vs pre, Mifamurtide 30 μg and/or PD-1 antagonist 5 mg/kg
[5] = serum, 8 hours post dose, Mifamurtide 30 μg and/or PD-1 antagonist 5 mg/kg
[6] = serum, Day 11, Mifamurtide 30 μg and/or PD-1 antagonist 5 mg/kg
[7] = serum, before dosing, Mifamurtide 30 μg and/or PD-1 antagonist 5 mg/kg group

Mifamurtide
TGI % & SEM (with ref. to Mifamurtide) [1]: 0.00%
TGI % (±SEM) (with ref. to PD-1 Antagonist) [1]: −39.48%
TGI % (±SEM) (with ref. to vehicle) [1]: −8.36%
Tumor volume (mm^3) (±SEM) ([1]; mean, i.p.): 2791.64 mm^3
IFN gamma, Fold change [2, 3]: 0.0
IL-6, Fold change [2, 3]: 10.85
MCP-1, Fold change [2, 3]: 1.5
TNF-alpha, Fold change [2, 3]: 1.6
IL-12p40, Fold change [2, 4]: 1.0
MIP-2, Fold change [2, 4]: 0.7
IFN gamma, Post (8 hours) [2, 5]: 0 picogram/ml
IL-6, Post (8 hours) [2, 5]: 14.43 picogram/ml
MCP-1, Post (8 hours) [2, 5]: 23.54 picogram/ml
TNF-alpha, Post (8 hours) [2, 5]: 3.33 picogram/ml
IL-12p40, Post (Day 11) [2, 6]: 1.55 picogram/ml
MIP-2, Post (Day 11) [2, 6]: 13.67 picogram/ml
IFN gamma, Pre [2, 7]: 0 picogram/ml
IL-6, Pre [2, 7]: 1.33 picogram/ml
IL-12p40, Pre [2, 7]: 1.55 picogram/ml
MCP-1, Pre [2, 7]: 15.9 picogram/ml
MIP-2, Pre [2, 7]: 20.84 picogram/ml
TNF-alpha, Pre [2, 7]: 2.13 picogram/ml
